The values below come from PubChem BioAssay (NCI).

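Tested at 5 concentrations; 48 h exposure; 96-well plates; endpoints linearly interpolated, else capped at highest concentration. GI50: concentration for 50% inhibition of growth. TGI marks complete inhibition of growth.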

Among the test systems are M14 melanoma; SNB-75 CNS; CAKI-1 renal; ACHN renal; HOP-92 NSCLC; SNB-19 CNS; NCI-H460 lung; RPMI-8226 leukemia; MDA-MB-435; HL-60(TB) leukemia.
Common to all, as to assay: growth of human tumour cells (NCI), 48 h

`Oc1cc(O)c2c(c1)OC(c1ccc(O)c(O)c1)C(O)C2c1c(O)cc(O)c2c1OC(c1ccc(O)c(O)c1)C(O)C2` (centres undefined): the TGI was over 100 µM in the assay on M14 melanoma; over 100 µM in the assay on SNB-75 CNS; 67.5 µM with CAKI-1 renal; over 100 µM in the assay with ACHN renal; over 100 µM in the assay on HOP-92 NSCLC; over 100 µM in the assay on SNB-19 CNS. Besides, the TGI in the assay with NCI-H460 lung, in the assay with RPMI-8226 leukemia and in the assay on MDA-MB-435 was over 100 µM in each case.
With `Nc1cc(N)c2nc(-c3ccccc3)c(NCc3ccc(Cl)c(Cl)c3)nc2c1`, the GI50 is 15.7 µM in the assay with M14 melanoma; 13.2 µM with CAKI-1 renal; 22.5 µM in the assay with SNB-19 CNS; 20.8 µM with NCI-H460 lung; 1.82 µM in the assay on HL-60(TB) leukemia; 1.66 µM with RPMI-8226 leukemia. In addition, the GI50 in the assay with MDA-MB-435 was 2.74 µM. Besides, the TGI came to 34.6 µM in the assay on M14 melanoma; 52.7 µM with CAKI-1 renal; 50.8 µM in the assay on SNB-19 CNS; 46.9 µM in the assay with NCI-H460 lung; 7.94 µM in the assay with HL-60(TB) leukemia; 3.72 µM with RPMI-8226 leukemia. The molecule further displayed a TGI in the assay with MDA-MB-435 of 7.56 µM.
In the case of `COc1ccc(NC(=O)c2cccc(C3CCc4c(cc(OC)c(OC)c4OC)O3)c2)cc1` (centres undefined), the GI50 is 2.6 µM in the assay with M14 melanoma; 3.49 µM in the assay on CAKI-1 renal; 4.28 µM with ACHN renal; 0.29 µM in the assay with HOP-92 NSCLC; 4.16 µM in the assay with SNB-19 CNS; 3.33 µM in the assay on NCI-H460 lung. Further, the GI50 in the assay with HL-60(TB) leukemia is 1.25 µM; in the assay on RPMI-8226 leukemia, 1.36 µM; with MDA-MB-435, 0.528 µM. The TGI with M14 melanoma was over 100 µM; with CAKI-1 renal, over 100 µM; in the assay on ACHN renal, over 100 µM; in the assay on HOP-92 NSCLC, 3.49 µM; in the assay on SNB-19 CNS, over 100 µM; with NCI-H460 lung it was over 100 µM. The TGI with HL-60(TB) leukemia is over 100 µM; in the assay on RPMI-8226 leukemia, 7.93 µM; with MDA-MB-435, 9.92 µM.
For the molecule `O=C(O)c1cc(Cl)cc(Cc2cc(Cl)cc(C(=O)O)c2O)c1O`, the TGI in the assay with M14 melanoma, in the assay on SNB-75 CNS, in the assay on CAKI-1 renal, in the assay with ACHN renal, in the assay on HOP-92 NSCLC and in the assay on SNB-19 CNS was over 100 µM each time. The TGI in the assay with NCI-H460 lung, in the assay with RPMI-8226 leukemia and in the assay on MDA-MB-435 was over 100 µM each time.
As for `C=C1C(=O)O[C@H]2[C@H]1CC/C(COC(=O)N[C@H](Cc1c[nH]c3ccccc13)C(=O)OC)=C\CC[C@@]1(C)O[C@@H]21`, the GI50 was 2.06 µM with M14 melanoma; 8.35 µM in the assay on SNB-75 CNS; 1.78 µM in the assay on ACHN renal; 1.94 µM with HOP-92 NSCLC; 8.75 µM with SNB-19 CNS; 5.79 µM in the assay with NCI-H460 lung. In addition, the values for the GI50 with RPMI-8226 leukemia and with MDA-MB-435 were 2.02 µM and 2.52 µM, respectively. In addition, the TGI in the assay on M14 melanoma was 6.08 µM; in the assay on SNB-75 CNS, 22.5 µM; in the assay with ACHN renal, 4.22 µM; in the assay on HOP-92 NSCLC, 5.87 µM; in the assay on SNB-19 CNS, 22.6 µM; in the assay with NCI-H460 lung it was 21.2 µM. In addition, the TGI came out at 5.83 µM in the assay with RPMI-8226 leukemia and 10 µM in the assay with MDA-MB-435.
On to `N/C(=N/S(=O)(=O)c1cc(C(=O)Nc2ccc(F)cc2)c(Cl)cc1SCc1ccccc1)Nc1ccccc1O`, for which the GI50 in the assay on M14 melanoma was 3.87 µM; with SNB-75 CNS, 1.96 µM; in the assay with CAKI-1 renal, 23.8 µM; with ACHN renal, 18.9 µM; in the assay with HOP-92 NSCLC it was 1.9 µM; in the assay on SNB-19 CNS it was 4.29 µM. Further, the GI50 with NCI-H460 lung was 2.93 µM; in the assay on RPMI-8226 leukemia, 2.61 µM; in the assay with MDA-MB-435, 1.76 µM. Further, the TGI with M14 melanoma is 14.4 µM; with SNB-75 CNS, 3.84 µM; in the assay on CAKI-1 renal it was over 100 µM; in the assay with ACHN renal, over 100 µM; in the assay with HOP-92 NSCLC, 4.02 µM; with SNB-19 CNS, over 100 µM. Besides, the TGI came out at 8.29 µM in the assay on NCI-H460 lung, 6.1 µM in the assay with RPMI-8226 leukemia and 3.19 µM in the assay with MDA-MB-435.
For `COc1ccc(C(Nc2ccccn2)c2cc(C(C)(C)C)cc(C(C)(C)C)c2O)cc1` (centres undefined), the TGI with M14 melanoma is 54.9 µM; in the assay with SNB-75 CNS it was 49.4 µM; in the assay with CAKI-1 renal it was over 100 µM; in the assay with ACHN renal it was over 100 µM; in the assay on HOP-92 NSCLC, over 100 µM; with SNB-19 CNS, over 100 µM. For the same molecule, the TGI in the assay on NCI-H460 lung is 55.7 µM; in the assay with RPMI-8226 leukemia it was over 100 µM; with MDA-MB-435 it was 62.4 µM.
Turning to `Cc1ccc(/C(=C/C=C(C#N)C#N)Sc2nc3ccccc3s2)cc1`, the GI50 in the assay on CAKI-1 renal was 2.72 µM; with SNB-19 CNS it was 14.8 µM; with NCI-H460 lung it was 18.3 µM; in the assay on HL-60(TB) leukemia, 7.02 µM; in the assay with MDA-MB-435, 3.54 µM. The TGI in the assay with CAKI-1 renal was 8.35 µM; in the assay on SNB-19 CNS, 34.1 µM; in the assay on NCI-H460 lung, 75.3 µM; with HL-60(TB) leukemia, over 100 µM; in the assay on MDA-MB-435, 13.1 µM.
As to `CCCCNCCCCCNc1cc(OC)cc2cccnc12`, the GI50 with M14 melanoma is 14.9 µM; in the assay on CAKI-1 renal, 18.4 µM; with ACHN renal, 45.3 µM; in the assay with HOP-92 NSCLC, 2.77 µM; with SNB-19 CNS, 13.8 µM; in the assay on NCI-H460 lung, 89.4 µM. Moreover, the results for the GI50 in the assay with RPMI-8226 leukemia and with MDA-MB-435 were 15.5 µM and 19.8 µM, respectively. The TGI in the assay on M14 melanoma is 28.5 µM; with CAKI-1 renal it was 37.7 µM; in the assay on ACHN renal, over 100 µM; with HOP-92 NSCLC it was 23 µM; with SNB-19 CNS, 31.5 µM; in the assay with NCI-H460 lung it was over 100 µM. Further, the TGI in the assay with RPMI-8226 leukemia amounted to 39.8 µM; with MDA-MB-435, 41.4 µM.
As for `CCOC(=O)c1cc(C(=O)c2cc(OC)c(OC)c(OC)c2)n2ccc(-c3cc[n+](CC(=O)c4cc(OC)c(OC)c(OC)c4)cc3)cc12`, the GI50 in the assay with SNB-75 CNS was 1.46 µM; with ACHN renal, 3.33 µM; in the assay on NCI-H460 lung it was 2 µM; in the assay with HL-60(TB) leukemia, 2.58 µM; with MDA-MB-435, 1.9 µM. Moreover, the TGI was determined as 3.36 µM in the assay on SNB-75 CNS; 13.6 µM with ACHN renal; 3.78 µM in the assay on NCI-H460 lung; 5.75 µM in the assay with HL-60(TB) leukemia; 3.85 µM with MDA-MB-435.
